The nature of the test: Rat calcinosis cutis/calciphylaxis model (vitamin D3 and FeCl3): skin plaque calcification. Conditions: for Skin plaque % inhibition of calcification: FeCl3 0.5 mg/kg. It is filed as in vivo, Sprague Dawley rat. How it is done: The dose-response efficacy of IP4-4,6 derivatives in the prevention and treatment of calcinosis cutis and calciphylaxis (CUA) induced by vitamin D3 and FeCl3 in a rat model was used. The model evaluated the effects of Compound 27 and IP6 on the formation of calcified skin plaques in rats for a duration of 8 days. Animals were sensitized at low concentration (LC, 35,000 IU/kg) and high concentration (HC, 50,000 IU/kg) doses of vitamin D3. A FeCl3 solution (0.5 mg/kg) was used as challenger to induce the formation of skin plaques. All animals were weighed every day before treatment.
Eighty-six male Sprague Dawley (SD) rats (Envigo Corp., Huntingdon, GB) weighing approximately 250-300 g were used. The animals were fed with a standard LASQCdiet® Rod14-H diet (LASvendi, Soest, DE). The animals were divided in 8 groups, 6 to 12 animals per group, as follows:
The following solutions were prepared: (a) 17,500 IU/mL (LC) and 25,000 IU/mL (HC) vitamin D3 (cholecalciferol, Duphafral D3 1000; Zoetis Inc., Parsippany, NJ, US), (b) 0.3 mg/mL FeCl3 (FeCl3·6H2O, 99%, Scharlab S. L., Barcelona, E S), (c) 30 mg/mL IP6 (660 g/mol phytic acid, pH 6.5-7.7), and (d) 15, 30, and 50 mg/mL Compound 27 (754.45 g/mol free acid, pH 6.5-7.7). All solutions were prepared in a 0.9% (w/v) physiological saline NaCl medium. An application volume of 2 mL/kg was employed.
Group 1—Control (sham), 6 animals. Animals in group 1 were administered subcutaneously physiological saline (0.9% (w/v) NaCl solution daily from D1 to D3 in the interscapular space, and with one saline 0.9% injection at each of the two ventral sites in the thorax on D4. Animals in group 1 were not administered Vit D or FeCl3 solutions.
Group 2—Physiological saline solution low concentration (Vehicle LC): Vit D 35,000 IU/kg, 0.5 mg/kg FeCl3 solution, 10 animals. Vit D at dose 35,000 IU/kg was administered subcutaneously x 3 consecutive days (D1, D2, D3), and one 0.5 mg/kg FeCl3 injection at each of the two ventral sites in the thorax on D4. This group received a daily saline 0.9% s.c. treatment (D1 to D8).
Group 3—Compound 27 60 mg/kg LC: Vit D 35,000 IU/kg, 0.5 mg/kg FeCl3, 10 animals. Vit D at dose 35,000 IU/kg was administered subcutaneously x 3 consecutive days (D1, D2, D3), and one 0.5 mg/kg FeCl3 injection at each of the two ventral sites in the thorax on D4. This group received a daily Compound 27 s.c. treatment at 60 mg/kg dose (D1 to D8).
Group 4—Physiological saline solution high concentration (Vehicle HC): Vit D 50,000 IU/kg, 0.5 mg/kg FeCl3, 12 animals. Vit D at dose 50,000 IU/kg was administered subcutaneously x 3 consecutive days (D1, D2, D3), and one 0.5 mg/kg FeCl3 injection at each of the two ventral sites in the thorax on D4. This group received a daily saline 0.9% s.c. treatment (D1 to D8).
Group 5—IP6 60 mg/kg HC, Vit D 50,000 IU/kg, 0.5 mg/kg FeCl3, 12 animals. Vit D at dose 50,000 IU/kg was administered subcutaneously x 3 consecutive days (D1, D2, D3), and one 0.5 mg/kg FeCl3 injection at each of the two ventral sites in the thorax on D4. This group received a daily IP6 s.c. treatment at 60 mg/kg dose (D1 to D8).
Group 6—Compound 27 30 mg/kg HC, Vit D 50,000 IU/kg, 0.5 mg/kg FeCl3, 12 animals. Vit D at dose 50,000 IU/kg was administered subcutaneously x 3 consecutive days (D1, D2, D3), and one 0.5 mg/kg FeCl3 injection at each of the two ventral sites in the thorax on D4. This group received a daily Compound 27 s.c. treatment at 30 mg/kg dose (D1 to D8).
Group 7—Compound 27 60 mg/kg […], Vit D 50,000 IU/kg, 0.5 mg/kg FeCl3, 12 animals. Vit D at dose 50,000 IU/kg was administered subcutaneously x 3 consecutive days (D1, D2, D3), and one 0.5 mg/kg FeCl3 injection at each of the two ventral sites in the thorax on D4. This group received a daily Compound 27 s.c. treatment at 60 mg/kg dose (D1 to D8).
Group 8—Compound 27 100 mg/kg HC, Vit D 50,000 IU/kg, 0.5 mg/kg FeCl3, 12 animals. […]

Regarding “4,6-O-bis(5-acetamidopentyl)-myo-inositol-1,2,3,5-tetrakis(phosphate) octasodium salt [Compound 27]”, the “Skin plaque % inhibition of calcification” value was 96.8 ± 0.7 % (30 mg/kg s.c. daily D1-D8, HC (vitamin D3 50,000 IU/kg)); 98.2 ± 0.1 % (60 mg/kg s.c. daily D1-D8, HC (vitamin D3 50,000 IU/kg)); 95.7 ± 0.9 % (60 mg/kg s.c. daily D1-D8, LC (vitamin D3 35,000 IU/kg)); 98.6 ± 0.1 % (100 mg/kg s.c. daily D1-D8, HC (vitamin D3 50,000 IU/kg)). Further, the “Inhibition of the formation of skin plaque” value (30, 60, 100 mg/kg s.c.) is “inhibits the formation of skin plaque in rats in a dose-response manner”. Further, the “Degree of inhibition of skin plaque calcification compared with IP6” value (same dose (60 mg/kg)) is reported as “higher than that reached by IP6 at the same dose”.

For the origin of these results see patent publication US20260337212A1, “IP4-4,6 SUBSTITUTED DERIVATIVE COMPOUNDS FOR USE IN THE TREATMENT, INHIBITION OF PROGRESSION, AND PREVENTION OF ECTOPIC CALCIFICATION” (SANIFIT THERAPEUTICS, S.A., priority 2022, published 2026).
